These results are taken from US20080131511A1, “Pharmaceutical Composition for Treatment of Tear and Salivary Fluid Drying” (Astellas Pharma, Inc., priority 2004, published 2008).

What all share (assay type): in vivo, mouse (male Balb/c)
Series [1] relates to ornithine decarboxylase (ODC) activity of extra-orbital lacrimal gland. Nature of the series: Ornithine decarboxylase activity of extra-orbital lacrimal gland after subcutaneous bolus administration. The settings on record: mice. Here is the method: (§1) Male Balb/c mice were used in the test. […] Also, the growth acceleration action was measured 6 hours after the administration. […] Also, the growth acceleration action was measured 6 hours after the administration. […] Thus, it can be easily analogized that the ODC activity becomes a useful index of cell growth and function of the exocrine gland. Accordingly, the ability of each drug to activate glandular tissue was evaluated by measuring ODC activity of parotid salivary gland and extra-orbital lacrimal gland. The amount of ^14CO2 formed from L-^14C-ornithine was used as the index of ODC activity. A mouse anesthetized with diethyl ether was sacrificed by bleeding, and left and right parotid salivary glands and extra-orbital lacrimal glands were isolated. After removing the attached connective tissue and fat, the isolated glandular tissues homogenized in 1.5 ml of a homogenate buffer (25 mM Tris-HCl buffer (pH 7.4) containing 0.1 mM ethylenediaminetetraacetic acid, 0.4 mM pyridoxal phosphate, 5 mM dithiothreitol and 0.1% Brij 35®) using a Potter type homogenizer and then centrifuged at 4° C., 15,000 g for 30 minutes, and the supernatant was used as the enzyme fraction. […] The ^14CO2 generated by the reaction was captured by 150 μl of 1 N NaOH soaked in a glass filter. Radioactivity of the ^14CO2 captured on the glass filter was detected using a liquid scintillation counter. The enzyme activity (pmol ^14CO2/mg protein/hour) was calculated from the measured results. All of the test results were expressed as fold increases of the reactions of the drug-administered group versus those of the vehicle-administered group, and comparison between the drug-administered groups and the vehicle-administered group was carried out using Dunnett's t-test. P<0.05 was considered significant. Results

The test system of series [2] is sweat gland. Nature of the series: Sweating (number of activated sweat glands on footpad) after subcutaneous bolus administration. As to conditions: mice; for dose at which statistically significant sweating was found: s.c. bolus. The procedure:
(§2) Male Balb/c mice were used in the test.
The compound A was dissolved in physiological saline to a concentration of 1, 3, 10, 30 or 100 mg/5 ml, and 5 ml/kg of the drug solution was administered under the dorsal skin. Secreted amounts of salivary and tear fluid were measured just before the administration of compound A and 10, 20, 30, 40 and 50 minutes after the administration. The sweating action was measured 10 minutes after the administration. Also, the growth acceleration action was measured 6 hours after the administration.
Pilocarpine was dissolved in physiological saline to a concentration of 0.03, 0.1, 0.3, 1, 3 or 10 mg/5 ml, or cevimeline to a concentration of 0.3, 1, 3, 10, 30 or 100 mg/5 ml, and 5 ml/kg of the drug solution was administered under the dorsal skin. Secreted amounts of salivary and tear fluid were measured just before the administration of pilocarpine or cevimeline and 10, 20, 30, 40 and 50 minutes after the administration. The sweating action was measured 10 minutes after the administration. Also, the growth acceleration action was measured 6 hours after the administration.
The footpad of right hind paw of a mouse anesthetized with diethyl ether was wiped with absorbent cotton, and then 20 μl of each of 5 mg/ml iodine-ethanol solution and 50 mg/ml starch-mineral oil suspension was applied thereto. The number of black spots on footpad was counted and used as the number of activated sweat glands. In the case of the subcutaneous bolus administration test, the number of activated sweat glands 10 minutes after the administration of compound A was measured. In the case of the subcutaneous continuous administration, area under the number of activated sweat glands-versus-time curve (AUC) was calculated.
(§3) All of the test results were expressed as fold increases of the reactions of the drug-administered group versus those of the vehicle-administered group, and comparison between the drug-administered groups and the vehicle-administered group was carried out using Dunnett's t-test. P<0.05 was considered significant. Results

For series [3], the system named is salivary gland. Nature of the series: Salivary fluid secretion during subcutaneous continuous administration (osmotic pump). As to conditions: mice; for Salivary fluid: AUC of secreted amount. The procedure:
as §2
The compound A was dissolved in physiological saline to a concentration of 0.625, 1.25, 2.5, 5.0, 10 or 20 mg/200 μl, and filled each pump (Alzet mini-osmotic pump 2001D, 8 μl/h, 1 day; DURECT Corporation) with about 200 μl portions It means, that is, each pump releases at a rate of 0.025, 0.05, 0.1, 0.2, 0.4 or 0.8 mg compound A/h, respectively. About 5 mm of dorsal epidermis of a mouse anesthetized with diethyl ether was incised, the osmotic pump already filled with the compound A was subcutaneously implanted, and then the skin was stitched. Secreted amounts of salivary and tear fluid and sweating were periodically measured from just before the implantation of pump until 32 hours after the administration. The ornithine decarboxylase activity was measured 10 hours after the implantation.
Pilocarpine was dissolved in physiological saline to a concentration of 0.039, 0.078, 0.16 or 0.31 mg/200 μl, or cevimeline to a concentration of 0.16, 0.31, 0.63 or 1.3 mg/200 μl, and filled the osmotic pump (Alzet mini-osmotic pump 2001 D, 8 μl/h, 1 day; DURECT Corporation) with about 200 μl portions. It means, that is, each pump releases at a rate of 0.00156, 0.00312, 0.0064 or 0.0124 mg/h (pilocarpine) or 0.0064, 0.0124, 0.0252 or 0.05 mg/h (cevimeline). About 5 mm of dorsal epidermis of a mouse anesthetized with diethyl ether was incised, the osmotic pump already filled with pilocarpine or cevimeline was subcutaneously implanted, and then the skin was stitched. Secreted amounts of salivary and tear fluid and sweating were periodically measured from just before the implantation of pump until 32 hours after the administration. The ornithine decarboxylase activity was measured 10 hours after the implantation.
The mouth of a mouse was wiped with a cotton ball whose weight had been measured in advance, and the incremental weight was used as the amount of salivary fluid. Also at the same time, a thread for tear fluid measurement (Zone Quick; Menicon) used on the Schirmer test was inserted into the lower eyelid conjunctival sac, and the length of colored part was measured and used as the amount of tear fluid. From the measurement results, area under the secreted amount-versus-time curve (AUC) was calculated.
as §3

For series [4], the system named is ornithine decarboxylase (ODC) activity of parotid salivary gland. Description: Ornithine decarboxylase activity of parotid salivary gland after subcutaneous bolus administration. The settings on record: mice. The procedure:
as §1

The mark [5] stands for this setting: s.c. bolus 10 mg/kg, ODC activity 6 hours after administration (Table 4).
Setting [6] is: s.c. bolus 30 mg/kg, ODC activity 6 hours after administration (Table 4).
Setting [7] is: s.c. bolus 100 mg/kg, ODC activity 6 hours after administration (Table 4).
Where [8] appears, read: s.c. osmotic pump 0.16 mg (0.0064 mg/h).
Setting [9] is: s.c. osmotic pump 0.31 mg (0.0124 mg/h).
Setting [10] is: s.c. bolus 1 mg/kg, ODC activity 6 hours after administration.
Where [11] appears, read: s.c. bolus 3 mg/kg, ODC activity 6 hours after administration.
Setting [12] is: s.c. bolus 10 mg/kg, ODC activity 6 hours after administration (Table 3).

The structures appear in SMILES notation.

With `CC1OC2(CS1)CN1CCC2CC1` (stereo not drawn) [cevimeline], the “Glandular cell growth Lacrimal gland” value in series [1] (setting [5]) is reported as 1.2 ± 0.90 fold increase vs. the vehicle group; in series [1] (setting [6]), 1.2 ± 0.52 fold increase vs. the vehicle group; in series [1] (setting [7]), 1.7 ± 0.79 fold increase vs. the vehicle group. Further, in series [2], the “dose at which statistically significant sweating was found” value is 10 mg/kg. In addition, the sweating in series [2] (s.c. bolus 3 mg/kg, 10 minutes after administration (Table 4)) is recorded as 1.5 ± 0.29 fold increase vs. the vehicle group; in series [2] (s.c. bolus 10 mg/kg, 10 minutes after administration (Table 4)), 2.5 ± 0.40 fold increase vs. the vehicle group; in series [2] (s.c. bolus 30 mg/kg, 10 minutes after administration (Table 4)) it was 3.1 ± 0.57 fold increase vs. the vehicle group. Also, in series [3] (s.c. continuous administration, cumulative quantity vs vehicle group), the “dose showing statistically significant salivary fluid secretion acceleration” value is 0.63 mg. The Salivary fluid is recorded as 0.98 ± 0.10 fold increase vs. the solvent group in series [3] (setting [8]), 1.0 ± 0.12 fold increase vs. the solvent group in series [3] (setting [9]), 1.5 ± 0.11 fold increase vs. the solvent group in series [3] (s.c. osmotic pump 0.63 mg (0.0252 mg/h)) and 1.7 ± 0.17 fold increase vs. the solvent group in series [3] (s.c. osmotic pump 1.25 (0.05 mg/h)). Also, the “Glandular cell growth Salivary gland” value in series [4] (setting [5]) is recorded as 1.7 ± 065 fold increase vs. the vehicle group; in series [4] (setting [6]), 1.1 ± 0.33 fold increase vs. the vehicle group; in series [4] (setting [7]) it was 1.1 ± 0.33 fold increase vs. the vehicle group.
Regarding `CC[C@@H]1C(=O)OC[C@@H]1Cc1cncn1C` [pilocarpine], the “Glandular cell growth Lacrimal gland” value in series [1] (setting [10]) is on record as 0.69 ± 0.09 fold increase vs. the vehicle group; in series [1] (setting [11]), 0.95 ± 0.23 fold increase vs. the vehicle group; in series [1] (setting [12]) it was 2.8 ± 0.61 fold increase vs. the vehicle group. Moreover, the “dose at which statistically significant sweating was found” value in series [2] came out at 1 mg/kg. The sweating in series [2] (s.c. bolus 0.3 mg/kg, 10 minutes after administration) is 1.1 ± 0.16 fold increase vs. the vehicle group; in series [2] (s.c. bolus 1 mg/kg, 10 minutes after administration) it was 3.1 ± 0.32 fold increase vs. the vehicle group; in series [2] (s.c. bolus 3 mg/kg, 10 minutes after administration (Table 3)), 4.2 ± 0.29 fold increase vs. the vehicle group. Further, in series [3] (s.c. continuous administration), the “dose at which salivary fluid secretion acceleration action reached maximum” value is reported as 0.16 mg. Besides, the Salivary fluid in series [3] (s.c. osmotic pump 0.039 mg (0.00156 mg/h)) is on record as 1.1 ± 0.04 fold increase vs. vehicle group; in series [3] (s.c. osmotic pump 0.078 mg (0.00312 mg/h)), 1.5 ± 0.08 fold increase vs. vehicle group; in series [3] (setting [8]), 2.9 ± 0.14 fold increase vs. vehicle group; in series [3] (setting [9]) it was 2.8 ± 0.24 fold increase vs. vehicle group. Also, the entries for the “Glandular cell growth Salivary gland” value in series [4] (setting [10]), in series [4] (setting [11]) and in series [4] (setting [12]) were 1.4 ± 0.48 fold increase vs. the vehicle group, 1.3 ± 0.54 fold increase vs. the vehicle group and 3.2 ± 1.1 fold increase vs. the vehicle group, respectively.
